# According to patent US10538517B2, “Quinolone derivatives as FGFR inhibitors” (Principia Biopharma, Inc., priority 2015, dated 2020):
# pIC50: −log10 of the molar value.
# Tested on: SNU-16 cells
# Experiment: Inhibition of FGFR2-dependent cell growth (Cell-titer Glo)
# Format: cell-based
# Details: Homo sapiens, 72 hrs incubation, cell viability, read-out: SNU16 IC50 values
# Method: The cell-based effects of FGFR inhibitors were determined by measuring inhibition of FGFR-dependent cell line growth. The cell lines SNU-16 was used for these assays. […] Percent inhibition of cell growth was calculated as a percentage of untreated cell viability. The percent inhibition was plotted as a function of log compound concentration. The IC50 was then calculated for each compound using Prism software from GraphPad.
row,pIC50,Compound
1,7.73,"CNc1ncc2cc(-c3cc(OC)cc(OC)c3)c(=O)n(CCc3ccc(NC(=O)C(C#N)=CC(C)(C)C)cc3)c2n1 [Cpd 8 (table 2), 2-cyano-N-(4-(2-(6-(3,5-dimethoxyphenyl)-2-(methylamino)-7-oxopyrido[2,3-d]pyrimidin-8(7H)-yl)ethyl)phenyl)-4,4-dimethylpent-2-enamide]"
2,7.53,"CNc1ncc2cc(-c3cc(OC)cc(OC)c3)c(=O)n(CCc3ccc(NC(=O)C(C#N)=CC(C)(C)N)cc3)c2n1 [Cpd 9 (table 2), 4-amino-2-cyano-N-(4-(2-(6-(3,5-dimethoxyphenyl)-2-(methylamino)-7-oxopyrido[2,3-d]pyrimidin-8(7H)-yl)ethyl)phenyl)-4-methylpent-2-enamide]"

# Same assay, conditions: Homo sapiens, SNU-16, 72 h, 72 hrs incubation, cell viability, read-out: SNU16 IC50 values
row,Compound,pIC50
1,"CNc1ncc2cc(-c3cc(OC)cc(OC)c3Cl)c(=O)n(CCN3CCN(C(=O)C(C#N)=CC(C)(C)C)CC3)c2n1 [Cpd 2 (table 1), 2-(4-(2-(6-(2-chloro-3,5-dimethoxyphenyl)-2-(methylamino)-7-oxopyrido[2,3-d]pyrimidin-8(7H)-yl)ethyl)piperazine-1-carbonyl)-4,4-dimethylpent-2-enenitrile]",7.29
2,"CNc1ncc2cc(-c3c(Cl)c(OC)cc(OC)c3Cl)c(=O)n(CCN3CCN(C(=O)C(C#N)=CC(C)(C)C)CC3)c2n1 [Cpd 3 (table 1), 2-(4-(2-(6-(2,6-dichloro-3,5-dimethoxyphenyl)-2-(methylamino)-7-oxopyrido[2,3-d]pyrimidin-8(7H)-yl)ethyl)piperazine-1-carbonyl)-4,4-dimethylpent-2-enenitrile]",7.47
3,"CCN(CC)CCCCNc1ncc2cc(-c3c(Cl)c(OC)cc(OC)c3Cl)c(=O)n(CCc3ccc(NC(=O)C(C#N)=CC(C)C)cc3)c2n1 [Cpd 4 (table 2), 2-cyano-N-(4-(2-(6-(2,6-dichloro-3,5-dimethoxyphenyl)-2-((4-(diethylamino)butyl)amino)-7-oxopyrido[2,3-d]pyrimidin-8(7H)-yl)ethyl)phenyl)-4-methylpent-2-enamide]",8.28
4,"CNc1ncc2cc(-c3cc(OC)cc(OC)c3Cl)c(=O)n(CCCN3CCN(C(=O)C(C#N)=CC(C)(C)C)CC3)c2n1 [Cpd 5 (table 1), 2-(4-(3-(6-(2-chloro-3,5-dimethoxyphenyl)-2-(methylamino)-7-oxopyrido[2,3-d]pyrimidin-8(7H)-yl)propyl)piperazine-1-carbonyl)-4,4-dimethylpent-2-enenitrile]",7.57
5,"CCN(CC)CCCCNc1ncc2cc(-c3c(Cl)c(OC)cc(OC)c3Cl)c(=O)n(Cc3cccc(NC(=O)C(C#N)=CC(C)C)c3)c2n1 [Cpd 5 (table 2), 2-cyano-N-(3-((6-(2,6-dichloro-3,5-dimethoxyphenyl)-2-((4-(diethylamino)butyl)amino)-7-oxopyrido[2,3-d]pyrimidin-8(7H)-yl)methyl)phenyl)-4-methylpent-2-enamide]",8.82
6,"CNc1ncc2cc(-c3cc(OC)cc(OC)c3Cl)c(=O)n(CCN3C[C@@H]4CN(C(=O)C(C#N)=CC(C)(C)C)C[C@@H]4C3)c2n1 [Cpd 6 (table 1), 2-((3aR,6aS)-5-(2-(6-(2-chloro-3,5-dimethoxyphenyl)-2-(methylamino)-7-oxopyrido[2,3-d]pyrimidin-8(7H)-yl)ethyl)octahydropyrrolo[3,4-c]pyrrole-2-carbonyl)-4,4-dimethylpent-2-enenitrile]",6.19
7,"CNc1ncc2cc(-c3cc(OC)cc(OC)c3)c(=O)n(CCc3cccc(NC(=O)C(C#N)=CC(C)(C)N)c3)c2n1 [Cpd 11 (table 2), 4-amino-2-cyano-N-(3-(2-(6-(3,5-dimethoxyphenyl)-2-(methylamino)-7-oxopyrido[2,3-d]pyrimidin-8(7H)-yl)ethyl)phenyl)-4-methylpent-2-enamide]",7.13
8,"CNc1ncc2cc(-c3cc(OC)cc(OC)c3Cl)c(=O)n(CCc3cccc(NC(=O)C(C#N)=CC(C)(C)C)n3)c2n1 [Cpd 16 (table 2), N-(6-(2-(6-(2-chloro-3,5-dimethoxyphenyl)-2-(methylamino)-7-oxopyrido[2,3-d]pyrimidin-8(7H)-yl)ethyl)pyridin-2-yl)-2-cyano-4,4-dimethylpent-2-enamide]",7.36
9,"CNc1ncc2cc(-c3cc(OC)cc(OC)c3Cl)c(=O)n(CCc3cccc(NC(=O)C(C#N)=CC(C)(C)N)n3)c2n1 [Cpd 17 (table 2), 4-amino-N-(6-(2-(6-(2-chloro-3,5-dimethoxyphenyl)-2-(methylamino)-7-oxopyrido[2,3-d]pyrimidin-8(7H)-yl)ethyl)pyridin-2-yl)-2-cyano-4-methylpent-2-enamide]",8.09
10,"CNc1ncc2cc(-c3cc(OC)cc(OC)c3Cl)c(=O)n(CCc3ccnc(NC(=O)C(C#N)=CC(C)(C)N)c3)c2n1 [Cpd 20 (table 2), 4-amino-N-(4-(2-(6-(2-chloro-3,5-dimethoxyphenyl)-2-(methylamino)-7-oxopyrido[2,3-d]pyrimidin-8(7H)-yl)ethyl)pyridin-2-yl)-2-cyano-4-methylpent-2-enamide]",7.04
11,"CNc1ncc2cc(-c3cc(OC)cc(OC)c3Cl)c(=O)n(CCc3ccc(NC(=O)C(C#N)=CC(C)(C)N)nc3)c2n1 [Cpd 21 (table 2), 4-amino-N-(5-(2-(6-(2-chloro-3,5-dimethoxyphenyl)-2-(methylamino)-7-oxopyrido[2,3-d]pyrimidin-8(7H)-yl)ethyl)pyridin-2-yl)-2-cyano-4-methylpent-2-enamide]",7.48
12,"CNc1ncc2cc(-c3cc(OC)cc(OC)c3Cl)c(=O)n(CCc3cccc(N(C)C(=O)C(C#N)=CC(C)(C)N)c3)c2n1 [Cpd 26 (table 2), 4-amino-N-(3-(2-(6-(2-chloro-3,5-dimethoxyphenyl)-2-(methylamino)-7-oxopyrido[2,3-d]pyrimidin-8(7H)-yl)ethyl)phenyl)-2-cyano-N,4-dimethylpent-2-enamide]",7.25
13,"CCOC(C)(C)C=C(C#N)C(=O)Nc1ccc(CCn2c(=O)c(-c3cc(OC)cc(OC)c3Cl)cc3cnc(NC)nc32)cc1 [Cpd 27 (table 2), N-(4-(2-(6-(2-chloro-3,5-dimethoxyphenyl)-2-(methylamino)-7-oxopyrido[2,3-d]pyrimidin-8(7H)-yl)ethyl)phenyl)-2-cyano-4-ethoxy-4-methylpent-2-enamide]",8.38
14,"CNc1ncc2cc(-c3cc(OC)cc(OC)c3Cl)c(=O)n(CCc3ccc(NC(=O)C(C#N)=CC(C)(C)N(C)C4COC4)cc3)c2n1 [Cpd 29 (table 2), N-(4-(2-(6-(2-chloro-3,5-dimethoxyphenyl)-2-(methylamino)-7-oxopyrido[2,3-d]pyrimidin-8(7H)-yl)ethyl)phenyl)-2-cyano-4-methyl-4-(methyl(oxetan-3-yl)amino)pent-2-enamide]",8.85
15,"CNc1ncc2cc(-c3cc(OC)cc(OC)c3Cl)c(=O)n(CCc3cccc(N(C)C(=O)C(C#N)=CC(C)(C)N(C)C)c3)c2n1 [Cpd 39 (table 2), N-(3-(2-(6-(2-chloro-3,5-dimethoxyphenyl)-2-(methylamino)-7-oxopyrido[2,3-d]pyrimidin-8(7H)-yl)ethyl)phenyl)-2-cyano-4-(dimethylamino)-N,4-dimethylpent-2-enamide]",7.40
16,"CNc1ncc2cc(-c3cc(OC)cc(OC)c3Cl)c(=O)n(CCc3cccc(NC(=O)C(C#N)=CC(C)(C)N(C)C4COC4)c3)c2n1 [Cpd 43 (table 2), N-(3-(2-(6-(2-chloro-3,5-dimethoxyphenyl)-2-(methylamino)-7-oxopyrido[2,3-d]pyrimidin-8(7H)-yl)ethyl)phenyl)-2-cyano-4-methyl-4-(methyl(oxetan-3-yl)amino)pent-2-enamide]",8.62
